Measurements as given in US12084472B2 (Ardelyx, Inc., priority 2015, dated 2024).

Target: T1, human TGR5 (Homo sapiens, UniProt Q8TDU6)
T1 construct: expressed in transfected cells; host or cells: HEK293
T1 sequence (Q8TDU6 1-330): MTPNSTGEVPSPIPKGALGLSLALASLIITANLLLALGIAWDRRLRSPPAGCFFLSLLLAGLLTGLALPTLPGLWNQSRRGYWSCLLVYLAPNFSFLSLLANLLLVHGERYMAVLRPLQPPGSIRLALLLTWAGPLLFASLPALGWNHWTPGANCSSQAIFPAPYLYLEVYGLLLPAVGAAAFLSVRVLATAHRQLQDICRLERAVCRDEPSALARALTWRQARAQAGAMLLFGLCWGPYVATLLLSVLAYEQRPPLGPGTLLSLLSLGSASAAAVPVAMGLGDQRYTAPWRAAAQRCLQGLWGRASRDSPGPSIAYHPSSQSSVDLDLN
Test: Cell-based TGR5 assay (cAMP generation, HTRF)
Conditions: HEK293 cells stably transfected with human TGR5; cAMP by HTRF; 30 minutes at 37° C.; read-out: pEC50 Human TGR5 (converted)
Outline: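 First, compounds in 3-fold serial dilution were placed in HBSS with 10 mM HEPES pH 7.4 and 0.5 mM IBMX. Next, human TGR5-expressing HEK293 cells were added and incubated 30 min at 37° C. Finally, cAMP was detected by HTRF and pEC50 derived by logistic fitting.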

Structure (SMILES) | EC50 [nM]
CCc1ccccc1-c1ccncc1C1(NCc2cc(Cl)ccc2Cl)CC1 [Compound I-9, N-[(2,5-dichlorophenyl)methyl]-1-[4-(2-ethylphenyl)pyridin-3-yl]cyclopropan-1-amine] | 126 to 1000
Cc1ccc(SCCCCN(CCOCCO)C(=O)[C@@H](O)[C@@H](O)[C@H](O)[C@@H](O)CO)cc1CNC1(c2cnccc2-c2ccccc2OC2CC2)CC1 [Compound I-549, (2S,3S,4R,5S)-N-[4-({3-[({1-[4-(2-cyclopropoxyphenyl)pyridin-3-yl]cyclopropyl}amino)methyl]-4-methylphenyl}sulfanyl)butyl]-2,3,4,5,6-pentahydroxy-N-[2-(2-hydroxyethoxy)ethyl]hexanamide] | < 100
Cc1ccc(CCCCNC(=O)N(C)C[C@H](O)[C@@H](O)[C@H](O)[C@H](O)CO)nc1CNC1(c2cnccc2-c2ccccc2OC2CC2)CC1 [Compound I-706] | 1260 to 10000
Cc1ccc(CCCCNC(=O)NC[C@H](O)[C@@H](O)[C@H](O)[C@H](O)CO)cc1CNC1(c2cnccc2-c2ccccc2OC2CC2)CC1 [Compound I-240, 1-(4-{3-[({1-[4-(2-cyclopropoxyphenyl)pyridin-3-yl]cyclopropyl}amino)methyl]-4-methylphenyl}butyl)-3-[(2S,3R,4R,5R)-2,3,4,5,6-pentahydroxyhexyl]urea] | < 100
Cc1ccc(Cl)cc1CNC1(c2cnccc2-c2ccccc2OC2CC2)CC1 [Compound I-40, N-[(5-chloro-2-methylphenyl)methyl]-1-[4-(2-cyclopropoxyphenyl)pyridin-3-yl]cyclopropan-1-amine] | < 100
Cc1ccc(Cl)c(CNC2(c3cnccc3-c3ccccc3OC3CC3)CC2)c1 [Compound I-33, N-[(2-chloro-5-methylphenyl)methyl]-1-[4-(2-cyclopropoxyphenyl)pyridin-3-yl]cyclopropan-1-amine] | < 100
C[C@@H](CCCCN)c1ccc(Cl)c(COC2(c3cnccc3-c3ccccc3OC3CC3)CC2)c1 (single isomer, unassigned) [Compound I-246] | 126 to 1000

The next lines start with the values.

EC50 [nM] | Structure (SMILES)
126 to 1000 | O=C(CCCSc1ccc(Cl)c(COC2(c3cnccc3-c3ccccc3OC3CC3)CC2)c1)N(CCCCO)C[C@H](O)[C@@H](O)[C@H](O)[C@H](O)CO [Compound I-692, 4-{[4-chloro-3-({1-[4-(2-cyclopropoxyphenyl)pyridin-3-yl]cyclopropoxy}methyl)phenyl]sulfanyl}-N-(4-hydroxybutyl)-N-[(2S,3R,4R,5R)-2,3,4,5,6-pentahydroxyhexyl]butanamide]
126 to 1000 | CC(CCCC(=O)N(CCN(C)C)C[C@H](O)[C@@H](O)[C@H](O)[C@H](O)CO)c1ccc(Cl)c(CNC2(c3cnccc3-c3ccccc3OC3CC3)CC2)c1 (stereo partly drawn) [Compound I-337, 5-{4-chloro-3-[({1-[4-(2-cyclopropoxyphenyl)pyridin-3-yl]cyclopropyl}amino)methyl]phenyl}-N-[^2-(dimethylamino)ethyl]-N-[(2S,3R,4R,5R)-2,3,4,5,6-pentahydroxyhexyl]hexanamide]
< 100 | CC(CCCN(C(=O)[C@@H](O)[C@@H](O)[C@H](O)[C@@H](O)CO)C1CCS(=O)(=O)CC1)c1ccc(Cl)c(COC2(c3cnccc3-c3ccccc3OC3CC3)CC2)c1 (stereo partly drawn) [Compound I-311, (2S,3S,4R,5S)-N-{4-[4-chloro-3-({1-[4-(2-cyclopropoxyphenyl)pyridin-3-yl]cyclopropoxy}methyl)phenyl]pentyl}-N-(1,1-dioxo-1λ^6-thian-4-yl)-2,3,4,5,6-pentahydroxyhexanamide]
< 100 | O=C(NCCCCC[S+]([O-])c1ccc(Cl)c(COC2(c3cnccc3-c3ccccc3OC3CC3)CC2)c1)[C@@H](O)[C@@H](O)[C@H](O)[C@@H](O)CO (stereo partly drawn) [Compound I-607, (2S,3S,4R,5S)-N-{5-[4-chloro-3-({1-[4-(2-cyclopropoxyphenyl)pyridin-3-yl]cyclopropoxy}methyl)benzenesulfinyl]pentyl}-2,3,4,5,6-pentahydroxyhexanamide]
< 100 | CNC(=O)CN(C[C@H](O)[C@@H](O)[C@H](O)[C@H](O)CO)C(=O)CCCC(C)c1ccc(Cl)c(CNC2(c3cnccc3-c3ccccc3OC3CC3)CC2)c1 (stereo partly drawn) [Compound I-336, 5-{4-chloro-3-[({1-[4-(2-cyclopropoxyphenyl)pyridin-3-yl]cyclopropyl}amino)methyl]phenyl}-N-[(methylcarbamoyl)methyl]-N-[(2S,3R,4R,5R)-2,3,4,5,6-pentahydroxyhexyl]hexanamide]
126 to 1000 | O=C(CCCSc1ccc(Cl)c(COC2(c3cnccc3-c3ccccc3OC3CC3)CC2)c1)N(C[C@H](O)[C@@H](O)[C@H](O)[C@H](O)CO)C1CCOCC1 [Compound I-669, 4-{[4-chloro-3-({1-[4-(2-cyclopropoxyphenyl)pyridin-3-yl]cyclopropoxy}methyl)phenyl]sulfanyl}-N-(oxan-4-yl)-N-[(2S,3R,4R,5R)-2,3,4,5,6-pentahydroxyhexyl]butanamide]
< 100 | O=C(O)CCNC(=O)N(CCCCc1cc(Cl)c(COC2(c3cnccc3-c3ccccc3OC3CC3)CC2)cc1Cl)C[C@H](O)[C@@H](O)[C@H](O)[C@H](O)CO [Compound I-198, 3-[({4-[2,5-dichloro-4-({1-[4-(2-cyclopropoxyphenyl)pyridin-3-yl]cyclopropoxy}methyl)phenyl]butyl}[(2S,3R,4R,5R)-2,3,4,5,6-pentahydroxyhexyl]carbamoyl)amino]propanoic acid]
< 100 | O=C(NC[C@H](O)[C@@H](O)[C@H](O)[C@H](O)CO)NC1CCC(CCNS(=O)(=O)c2ccc(Cl)c(COC3(c4cnccc4-c4ccccc4OC4CC4)CC3)c2)CC1 (stereo partly drawn) [Compound I-422, 1-(4-{2-[4-chloro-3-({1-[4-(2-cyclopropoxyphenyl)pyridin-3-yl]cyclopropoxy}methyl)benzenesulfonamido]ethyl}cyclohexyl)-3-[(2S,3R,4R,5R)-2,3,4,5,6-pentahydroxyhexyl]urea]
< 100 | CCOC(=O)NCCN(CCCCSc1ccc(Cl)c(COC2(c3cnccc3-c3ccccc3OC3CC3)CC2)c1)C(=O)[C@@H](O)[C@@H](O)[C@H](O)[C@@H](O)CO [Compound I-576, ethyl N-{2-[(2S,3S,4R,5S)-N-(4-{[4-chloro-3-({1-[4-(2-cyclopropoxyphenyl)pyridin-3-yl]cyclopropoxy}methyl)phenyl]sulfanyl}butyl)-2,3,4,5,6-pentahydroxyhexanamido]ethyl}carbamate]
< 100 | COCCCN(C[C@H](O)[C@@H](O)[C@H](O)[C@H](O)CO)C(=O)CCCC(C)c1ccc(Cl)c(CNC2(c3cnccc3-c3ccccc3OC3CC3)CC2)c1 (stereo partly drawn) [Compound I-338, 5-{4-chloro-3-[({11-[4-(2-cyclopropoxyphenyl)pyridin-3-yl]cyclopropyl}amino)methyl]phenyl}-N-(3-methoxypropyl)-N-[(2S,3R,4R,5R)-2,3,4,5,6-pentahydroxyhexyl]hexanamide]
< 100 | O=C(CCCCc1cc(Cl)c(COC2(c3cnccc3-c3ccccc3OC3CC3)CC2)cc1Cl)N[C@@H](CN1CCOCC1)[C@@H](O)[C@H](O)[C@H](O)CO (stereo in doubt) [Compound I-160, 5-[2,5-dichloro-4-({1-[4-(2-cyclopropoxyphenyl)pyridin-3-yl]cyclopropoxy}methyl)phenyl]-N-[(2S,3R,4S,5R)-3,4,5,6-tetrahydroxy-1-(morpholin-4-yl)hexan-2-yl]pentanamide]
